According to patent US20240166702A1, “COMPOSITIONS AND METHODS FOR TREATING BREAST CANCER” (Arizona Board of Regents on Behalf of The University of …, priority 2021, published 2024):

Columns and labels:
MDA-MB-468 cells [1] = assay: Bulk RNAseq of treated MDA-MB-468 cells; format: cell-based, human; conditions: MDA-MB-468, bulk RNAseq in triplicate
Description: (§1) C. WAP-TGFα tumors treated with either SNX1.3 or cPTD4 were analyzed for NK cells using an anti-NKp46 antibody. Inset is 20×.
(§2) A-C. […] A. A gene ontology enrichment bubble plot was produced, and the top 30 enriched GO terms are shown. Color indicates −1*log 10(FDR) for significance of overlap (the higher the more significant). X axis=log odds ratio for genes annotated to that GO term. […] C. RT-PCR analysis of IL1RL1.
(§3) In addition to bioinformatics identification of CTLs in these tumors, similar analysis implicated recruitment of NK cells as well (FIG. 9). As a part of the innate immune system, NK cells should only be recruited if a change has occurred to display NK-activating antigens. While there are many such antigens expressed under a variety of immune modulation conditions, some are highly associated with activation of NK cells against cancers, such as ULBP2/3 or MICA/MICB32.
A significant impact on the immune response, especially IL-1 dependent pathways was identified (FIG. 12A). IL-1-specific genes were searched and an upregulation in several IL1R genes, including IL1R2, IL1RL1, IL1RL2, IL1RAP and IL1RN (FIG. 12B) were found. […] It is hypothesized that the transient and targeted activation of the IL1/TLR pathway in the tumors may allow for the immune system to become active where previously these tumors were immune suppressive. […]

IL1RL1 = assay: RT-PCR analysis of IL1RL1 in MDA-MB-468 cells; format: cell-based, human; conditions: similarly treated MDA-MB-468 cells
From the text: as §2
A significant impact on the immune response, especially IL-1 dependent pathways was identified (FIG. 12A). IL-1-specific genes were searched and an upregulation in several IL1R genes, including IL1R2, IL1RL1, IL1RL2, IL1RAP and IL1RN (FIG. 12B) were found. […] It is hypothesized that the transient and targeted activation of the IL1/TLR pathway in the tumors may allow for the immune system to become active where previously these tumors were immune suppressive. Triple negative breast cancers with active EGFR pathways are clinically immune suppressive, and it is hypothesized that blocking nEGFR may allow for the utilization of immune targeting to treat these cancers.

pAkt and dpERK = assay: EGF-dependent Akt and ERK activation in MDA-MB-468 cells; format: cell-based, human; conditions: MDA-MB-468, EGF stimulated
BT20 cells = format: cell-based, human
Description: (§4) B. MDA-MD-468 cells were transduced with an IPTG inducible shEGFR targeted against the 3′ UTR of EGFR. These cells were incubated with IPTG for the indicated number of days and lysates were generated to confirm knock down of EGFR. C. In tandem with B., cells were plated and incubated +/−IPTG for 2 days prior to drug treatment. […] After 5 days of IPTG and 3 days of peptide treatment viability was measured using an MTT assay.
To investigate rt-EGFR, the role of the Sorting Nexins to regulate EGFR trafficking to the lysosome for degradation was investigated. To determine if SNX1 domains could be therapeutically mimicked, three SNX1-based peptides were synthesized, each of which was generated in tandem with a Cell Penetrating Peptide domain (PTD-4) to allow for intracellular penetration^19 (SNX1.1, 1.2 and 1.3, FIG. 2A). The ability of each peptide to reduce cell survival in the triple negative breast cancer cell line BT20 was evaluated.
EGFR activity is known to promote the activity of other RTKs, including those in the EGFR family (HER2, HER3 and HER4) and the c-Met receptor (Puri and Salgia 2008; Linklater et al. 2016). Therefore, the ability of SNX1.3 to inhibit 2D migration was next evaluated, both in response to EGF as well as other migration-inducing ligands. […] Cells were plated on plastic and allowed to migrate into an artificial wound over 12 hours. […] To determine if this inhibitory effect was restricted to EGF-induced migration, the ability of SNX1.3 to impact neuregulin (NRG1) was also tested and hepatic growth factor (HGF)-induced migration. NRG is the ligand for HER3 and HER4, and HGF the ligand for the c-Met receptor, both of which are receptor tyrosine kinases. In addition, soluble hyaluronic acid (HA)-induced migration, the ligand for CD44, was also tested [a non-kinase membrane receptor that induces migration (Louderbough, Lopez, and Schroeder 2010)]. […] Note that all receptors undergo endocytosis, with the RTKs primarily undergoing clathrin-dependent endocytosis, while CD44 endocytosis is clathrin-independent (Dutta and Donaldson 2015).

CHO cells = assay: Effect on CHO cells that lack EGFR expression; format: cell-based
From the text: No effect on CHO cells that lack EGFR expression was observed.

[2] = biological target: EGFR kinase domain / SNX1 Bar domain (Homo sapiens, UniProt P00533); assay: MST binding of EGFR kinase domain with SNX1 Bar domain and peptides; conditions: EGFR kinase domain 50 nM
Sequence of EGFR kinase domain / SNX1 Bar domain (P00533 712-979 limits assumed): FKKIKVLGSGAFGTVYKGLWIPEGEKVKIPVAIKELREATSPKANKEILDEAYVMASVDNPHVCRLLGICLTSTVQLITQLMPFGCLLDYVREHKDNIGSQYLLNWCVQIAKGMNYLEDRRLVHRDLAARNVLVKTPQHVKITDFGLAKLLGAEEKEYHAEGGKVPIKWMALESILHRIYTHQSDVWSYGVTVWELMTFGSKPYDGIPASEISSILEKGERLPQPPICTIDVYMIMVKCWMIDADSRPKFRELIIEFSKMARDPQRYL

[3] = tested on: A549 lung cancer line with wildtype EGFR; assay: MTT cell viability assay in A549 cells; format: cell-based; conditions: 3 days
[4] = tested on: BT20 triple negative breast cancer cells; assay: BT20 mammosphere assay; format: cell-based, human
Description: Cells were then fractionated and verified by HSP90 cytosolic protein, Bap31 membrane protein, or HDAC nuclear protein. B. MDA-MB-468 cells were serum starved overnight then stimulated with EGF on ice for 10 minutes. […] B. MDA-MB-468 cells were serum starved overnight then incubated on ice with 10 ng/mL EGF for 10 minutes. […] C. […] After the second week, the number of secondary mammospheres were counted.

WAP-TGFα tumors = assay: Anti-NKp46 antibody analysis of WAP-TGFα tumors for NK cells; format: in vivo, mouse; conditions: anti-NKp46 antibodies
Description: as §1, §3

MDA-MB-468 cells [5] = format: cell-based, human
Description: A. Peptide sequence alignment of modified and stabilized peptides (−) indicates conserved residues, (/) indicates a deleted residue. Modified residues used for staples are (S)-2-(((9H-flouren-9-yl) methoxy) caronylamino)-2-methyl-hept-6-enoic acid (5) and (R)-2-(((9H-flouren-9-yl) methoxy) caronylamino)-2-methyl-dec-9-enoic acid (8). PTD4=Protein Transduction Domain. Ac=acetylation of 5′ end and NH2=amidation of 3′ end. B. MDA-MB-468 cells were treated with 10 μM of the indicated peptide for 3 days. Cell viability was measured using an MTT assay. Vehicle control represents 100%. C. A predicted peptide structure of SNX1.3 was generated using SWISSMODEL with negative (blue) and positive (red) residues highlighted.
as §4
Predicted peptide structure including negatively (blue) and positively (red) charged residues was used to guide the modifications (FIG. 2C).

CC[C@H](C)[C@H](NC(=O)[C@@H](NC(=O)[C@H](Cc1c[nH]cn1)NC(=O)[C@H](CC(N)=O)NC(=O)[C@H](CCCCN)NC(=O)[C@H](C)NC(=O)[C@H](CCCNC(=N)N)NC(=O)[C@H](C)NC(=O)[C@H](CCC(N)=O)NC(=O)[C@H](CCCNC(=N)N)NC(=O)[C@H](C)NC(=O)[C@H](C)NC(=O)[C@H](C)NC(=O)[C@H](CCCNC(=N)N)NC(=O)[C@H](C)NC(=O)[C@H](Cc1ccc(O)cc1)NC(C)=O)C(C)C)C(=O)N[C@@H](CCCCN)C(=O)N[C@@H](Cc1ccc(O)cc1)C(=O)N[C@@H](CC(C)C)C(=O)N[C@@H](CCC(=O)O)C(=O)N[C@H](C(=O)N[C@@H](CC(C)C)C(=O)N[C@@H](CC(C)C)C(=O)N[C@@H](Cc1ccc(O)cc1)C(=O)N[C@@H](CO)C(=O)N[C@@H](CCC(N)=O)C(=O)N[C@@H](CCC(N)=O)C(=O)N[C@@H](CCC(N)=O)C(=O)N[C@@H](CC(C)C)C(=O)N[C@@H](C)C(=O)N[C@@H](CCCCN)C(=O)N[C@@H](Cc1ccc(O)cc1)C(=O)N[C@@H](Cc1c[nH]c2ccccc12)C(=O)N[C@@H](CCC(=O)O)C(=O)N[C@@H](C)C(=O)N[C@@H](Cc1ccccc1)C(=O)N[C@@H](CC(C)C)C(N)=O)[C@@H](C)O [cSNX1.3]
NK activating antigens ULBP2, ULBP3, MICA and MICB (MDA-MB-468 cells [1]): increased | PDL1 expression (MDA-MB-468 cells [1]): did not alter | IL1RL1 expression (IL1RL1): upregulated | immediate Akt or ERK activation (pAkt and dpERK; 15′): no impact | pAkt and dpERK activation, late (pAkt and dpERK; after an hour (60′)): suppressed | IC50 (BT20 cells): 25 µM | inhibition of cell survival, compared with Sapitinib (BT20 cells; BT20, 3 days, MTT assay): more effective than Sapitinib | effect on CHO cells (CHO cells): No effect | binding of EGFR to SNX1 [2]: competitively inhibits | inhibition of cell survival, compared with Sapitinib [3]: more effective than Sapitinib | secondary sphere formation after treatment in the first week only ([4]; BT20, cSNX1.3 in first week, cPTD4 or vehicle in second week): significant reduction of sphere formation | mammosphere formation ([4]; BT20, first week of treatment): no mammospheres were formed | secondary mammosphere formation, treated in the second week ([4]; BT20, re-plated, treatment on the second week): no mammosphere formation | NK cell infiltration into tumors (WAP-TGFα tumors): Significant NK cell infiltration | IC50 (MDA-MB-468 cells [5]; 9 h): 7.5 µM | efficacy after C- and N-terminal peptide end-capping (MDA-MB-468 cells [5]; MDA-MB-468, 10 μM peptide for 3 days, MTT assay): increased efficacy | inhibition of cell survival, compared with Sapitinib (MDA-MB-468 cells [5]; MDA-MB-468, 3 days, MTT assay): more effective than Sapitinib
